From US12551463B2, “Dosing of a Bruton's tyrosine kinase inhibitor” (Loxo Oncology, Inc., priority 2019, dated 2026)

Columns and labels:
[1] = Human clinical trials of BTK-I: adverse events in the overall safety population of 323 patients; format: in vivo
Method: (Mato A., et al., “Toxicities and Outcomes of 616 Ibrutinib-Treated Patients in the United States: A Real-World Analysis”, Haematologica, 2018, 103(5), 874-879.) Between Mar. 21, 2019 and Sep. 27, 2020, across 7 dose levels ranging from 25 mg once daily (QD) to 300 mg QD in 323 patients, the only treatment-emergent adverse events regardless of attribution or grade seen in ≥10% of patients (n=323) were fatigue (n=65, 20%), diarrhea (n=55, 17%), and contusion (n=42, 13%). In 121 efficacy-evaluable cBTKi-treated chronic lymphocytic leukemia (CLL) patients (median prior lines=4), overall response rate (ORR) was 62% (95% CI: 53-71), rising to 84% in patients followed for ≥10 months.
Atrial arrythmias and hemorrhage are two important AEs associated with covalent BTK inhibitor discontinuation. […] Only 1 patient experienced a grade 3 hemorrhage, a subarachnoid bleed sustained during a bicycle accident. In total, 18 patients had discontinued a prior BTK inhibitor for cardiovascular toxicity (in 15) or hemorrhage (3). None experienced recurrence of these events on BTK-I.

REC-1 cells = assay: In vivo mouse xenograft study, REC-1; set-up: species or system mice; conditions: BTK-I BID alone; BTK WT driven REC-1 (MCL) xenograft
Method: (§1) In all studies, test articles are administered alone and in combination, following different dosing regimens.
(§2) Human TMD8 BTK WT, TMD8 BTK C481S or REC-1 cells are injected subcutaneously in the right flank of mice. When tumors reach a mean volume between 150 mm^3 and 400 mm^3, mice are randomized based on their tumor volumes. Mice are next dosed for 14 to 23 days depending on the study design. The potencies of the compounds stand-alone or in combination on the inhibition of the tumor growth are assessed based on the tumor volume changes and weights after collection at the end of the study. Additionally, in the TMD8 studies, the plasma concentrations of test articles are measured at multiple time points after the last dose.

TMD8 BTK C481S cells = assay: In vivo mouse xenograft study, TMD8 BTK C481S; set-up: species or system mice; conditions: BTK-I BID alone; BTK C481S driven TMD8 (DLBCL) xenograft
Method: as §1, §2

MCL = assay: Phase 1/2 clinical study, mantle cell lymphoma patients; format: in vivo, human
From the text: (§3) The study is an open-label, multi-center study of oral BTK-I to evaluate safety and efficacy as monotherapy and as part of combination therapy in patients with CLL/SLL and NHL who have failed or are intolerant to standard of care. This study includes monotherapy as well as combination treatment parts. The monotherapy part includes Phase 1 dose escalation and dose expansion as well as Phase 2. The combination therapy part is a Phase 1b (safety assessment and expansion) of BTK-I in combination with venetoclax, with or without anti-CD20 therapy. Phase 1 dose escalation will proceed prior to start of Phase 1b or Phase 2. Once a recommended Phase 2 dose (RP2D) is identified in Phase 1, enrollment can commence to the Phase 1b combination therapies and Phase 2 monotherapy cohorts.
The primary objectives of the Phase 1 Dose Escalation and Expansion part of the study is to determine the maximum tolerated dose (MTD)/RP2D of oral BTK-I in patients with previously treated CLL/SLL and B-cell NHL.
Patients are enrolled with histologically confirmed CLL/SLL or B-cell NHL who have failed or are intolerant to at least two prior standard of care regimens given in combination or sequentially or have received at least one prior BTK inhibitor-containing regimen when BTK inhibitor is approved in first line.
BTK-I is administered in oral tablet form. Dose escalation will follow a 3+3 design starting with a 25 mg QD dose (followed by 50 mg QD (dose level cohort 2), 100 mg QD (dose level cohort 3), 150 mg QD (dose level cohort 4), 200 mg QD (dose level cohort 5), 250 mg QD (dose level cohort 6), and 300 mg QD (dose level cohort 7)). Cycle length will be 28 days. The drug limiting toxicity (DLT) period will be 28 days, commencing with the first dose of BTK-I.
The primary objective of the Phase 2 is to assess the primary anti-tumor activity of BTK-I based on overall response rate (ORR) and as assessed by the Independent Review Committee.
At the RP2D up to ˜600 patients with CLL/SLL or NHL will be enrolled to one of the following cohorts: • Cohort 1: Non-blastoid MCL patients treated with a prior BTK-inhibitor. • Cohort 2: CLL/SLL patients treated with 2 or more prior regimens, including a BTK inhibitor-containing regimen. • Cohort 3: CLL/SLL patients with no prior therapy. • Cohort 4: CLL/SLL patients treated with prior therapy, BTK inhibitor naive. • Cohort 5: WM patients treated with a prior BTK inhibitor containing regimen. • Cohort 6: MZL patients treated with a prior BTK inhibitor containing regimen. • Cohort 7: (Not otherwise specified) defined as CLL/SLL or NHL not otherwise specified in Cohorts 1 through 6, inclusive of CLL/SLL or NHL, Richter's transformation, blastoid MCL, and patients with history of CNS involvement or primary CNS lymphoma.
Dosing during Phase 2 will be at the RP2D of 200 mg QD. The cycle length will be 28 days. BTK-I will be administered to the Phase 2 patients in oral tablet form at the RP2D. The dose (and schedule) chosen for Phase 2 may be changed by the SRC based on emerging data (e.g., PK, safety, and/or efficacy) as long as the new dose is not greater than the highest dose that has a DLT <33% and is determined to be safe by the SRC in Phase 1. If the RP2D is changed based on emerging data, patients enrolled to Phase 2 at a different dose may have the dose changed to the new dose.

follicular lymphoma = assay: Phase 1/2 clinical study, follicular lymphoma patients; format: in vivo, human; conditions: among 8 efficacy-evaluable patients
From the text: as §3, with “cohorts. […]” for “cohorts.”
The primary objective of the Phase 2 is to assess the primary anti-tumor activity of BTK-I based on overall response rate (ORR) and as assessed by the Independent Review Committee. […]
Dosing during Phase 2 will be at the RP2D of 200 mg QD. […] The dose (and schedule) chosen for Phase 2 may be changed by the SRC based on emerging data (e.g., PK, safety, and/or efficacy) as long as the new dose is not greater than the highest dose that has a DLT <33% and is determined to be safe by the SRC in Phase 1. […]

[2] = 25 mg QD to 300 mg QD, n=323, regardless of attribution or grade

SMILES: COc1ccc(F)cc1C(=O)NCc1ccc(-c2nn([C@@H](C)C(F)(F)F)c(N)c2C(N)=O)cc1 [BTK-I, (S)-5-amino-3-(4-((5-fluoro-2-methoxybenzamido)methyl)phenyl)-1-(1,1,1-trifluoropropane-2-yl)-1H-pyrazole-4-carboxamide]
- treatment-emergent adverse event contusion, patients [1, 2]: 13%
- treatment-emergent adverse event diarrhea, patients [1, 2]: 17%
- treatment-emergent adverse event fatigue, patients [1, 2]: 20%
- recurrence of cardiovascular toxicity or hemorrhage on BTK-I ([1]; 18 patients who had discontinued a prior BTK inhibitor for cardiovascular toxicity (15) or hemorrhage (3)): None
- permanent discontinuations for drug-related adverse events, patients ([1]; n=323 (in 5)): 1.5%
- dose reductions for drug-related adverse events, patients ([1]; n=323 (in 7)): 2.2%
- dose interruptions for drug-related adverse events, patients ([1]; n=323 (in 26)): 8.0%
- atrial fibrillation/flutter, patients ([1]; overall safety population of 323 patients, 2 patients, both grade 2, considered unrelated): 0.6%
- grade 3 hemorrhage ([1]; overall safety population of 323 patients, subarachnoid bleed during a bicycle accident): 1 patient
- inhibition of xenograft tumor growth (REC-1 cells): potently inhibited the growth
- inhibition of xenograft tumor growth (TMD8 BTK C481S cells): potently inhibited the growth
- ORR (MCL; 52 patients with prior covalent BTK inhibitor, 95% CI: 38-66): 52%
- ORR (MCL; 56 efficacy-evaluable MCL patients, 95% CI: 38-65): 52%
- median time to first response (MCL; MCL): 1.8 months
- patients remaining on BTK-I (MCL; all MCL patients): 57%
- responding patients who discontinued treatment (MCL; of 29 responders (4 PD, 1 in CR)): 5
- CR, patients (MCL; of 56 efficacy-evaluable): 14
- NE, patients (MCL; of 56 efficacy-evaluable): 5
- PD, patients (MCL; of 56 efficacy-evaluable): 12
- PR, patients (MCL; of 56 efficacy-evaluable): 15
- responses (MCL; patients with blastoid variant MCL): 2 of 4
- responses (MCL; patients with prior CAR-T): 2 of 2
- responses (MCL; prior autologous or allogeneic transplant (9/14)): 64%
- patients with responses (follicular lymphoma): 4
